{"source": "ChEMBL document CHEMBL5465560", "about": "“Selectivity Literature for EUbOPEN Chemogenomic Library” (2024)", "key": {"[1]": {"target": "Sodium-dependent serotonin transporter (Homo sapiens, UniProt P31645)", "sequence (P31645 whole entry, looked up)": "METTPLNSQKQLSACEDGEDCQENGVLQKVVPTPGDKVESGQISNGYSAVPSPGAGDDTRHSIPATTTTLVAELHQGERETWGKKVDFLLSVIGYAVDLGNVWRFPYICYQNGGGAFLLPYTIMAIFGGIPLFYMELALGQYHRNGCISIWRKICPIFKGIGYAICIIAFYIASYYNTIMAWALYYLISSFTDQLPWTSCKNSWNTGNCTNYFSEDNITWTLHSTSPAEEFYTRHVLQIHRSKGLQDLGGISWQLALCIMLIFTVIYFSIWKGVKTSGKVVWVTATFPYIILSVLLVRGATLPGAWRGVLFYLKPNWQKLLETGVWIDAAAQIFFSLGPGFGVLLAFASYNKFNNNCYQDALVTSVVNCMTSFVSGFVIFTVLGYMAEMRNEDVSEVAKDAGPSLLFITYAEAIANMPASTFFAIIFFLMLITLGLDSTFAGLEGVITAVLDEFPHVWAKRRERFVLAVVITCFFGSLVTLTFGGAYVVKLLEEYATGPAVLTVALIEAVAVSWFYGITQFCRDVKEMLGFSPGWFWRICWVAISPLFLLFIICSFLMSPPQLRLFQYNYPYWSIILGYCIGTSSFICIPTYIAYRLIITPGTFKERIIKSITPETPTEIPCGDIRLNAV", "experiment": "Selectivity interaction (Eurofins CEREP Diversity Profile (receptors and ion channels)) EUB0000279b SLC6A4", "conditions": "at 10 µM"}, "[2]": {"target": "T1, Phosphatidylinositol 5-phosphate 4-kinase type-2 alpha (Homo sapiens) (UniProt P48426)", "T1 sequence (whole entry)": "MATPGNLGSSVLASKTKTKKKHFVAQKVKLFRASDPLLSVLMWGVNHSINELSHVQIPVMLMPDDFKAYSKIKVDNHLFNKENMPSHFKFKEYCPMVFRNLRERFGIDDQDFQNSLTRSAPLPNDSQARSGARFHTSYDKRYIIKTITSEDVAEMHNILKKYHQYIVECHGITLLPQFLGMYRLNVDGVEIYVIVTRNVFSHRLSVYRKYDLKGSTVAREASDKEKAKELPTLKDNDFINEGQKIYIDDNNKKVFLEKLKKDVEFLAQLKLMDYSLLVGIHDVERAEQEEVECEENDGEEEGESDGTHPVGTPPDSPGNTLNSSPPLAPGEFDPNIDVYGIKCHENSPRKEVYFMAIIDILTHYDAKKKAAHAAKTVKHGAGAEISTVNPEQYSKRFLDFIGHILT", "conditions": "at 1 µM"}, "[3]": {"target": "T2, Phosphorylase b kinase gamma catalytic chain, liver/testis isoform (Homo sapiens) (UniProt P15735)", "T2 sequence (whole entry)": "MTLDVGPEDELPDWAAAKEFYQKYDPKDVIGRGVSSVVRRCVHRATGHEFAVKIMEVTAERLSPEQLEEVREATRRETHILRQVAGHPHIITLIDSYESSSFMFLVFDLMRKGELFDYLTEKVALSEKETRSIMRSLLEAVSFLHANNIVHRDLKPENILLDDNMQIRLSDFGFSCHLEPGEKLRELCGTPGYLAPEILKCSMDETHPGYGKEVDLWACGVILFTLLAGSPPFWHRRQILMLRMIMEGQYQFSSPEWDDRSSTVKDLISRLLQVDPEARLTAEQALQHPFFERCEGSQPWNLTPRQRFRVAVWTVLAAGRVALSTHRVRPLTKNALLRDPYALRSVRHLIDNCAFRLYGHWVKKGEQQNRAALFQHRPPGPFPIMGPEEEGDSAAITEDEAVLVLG", "experiment": "Selectivity interaction (ActivX KiNativ screen (kinase selectivity in THP-1 cell lysates)) EUB0000639a PHKG2", "assay_type": "subcellular", "conditions": "lysate"}, "[4]": {"target": "T3, Mitogen-activated protein kinase kinase kinase 3 (Homo sapiens) (UniProt Q99759)", "T3 sequence (whole entry)": "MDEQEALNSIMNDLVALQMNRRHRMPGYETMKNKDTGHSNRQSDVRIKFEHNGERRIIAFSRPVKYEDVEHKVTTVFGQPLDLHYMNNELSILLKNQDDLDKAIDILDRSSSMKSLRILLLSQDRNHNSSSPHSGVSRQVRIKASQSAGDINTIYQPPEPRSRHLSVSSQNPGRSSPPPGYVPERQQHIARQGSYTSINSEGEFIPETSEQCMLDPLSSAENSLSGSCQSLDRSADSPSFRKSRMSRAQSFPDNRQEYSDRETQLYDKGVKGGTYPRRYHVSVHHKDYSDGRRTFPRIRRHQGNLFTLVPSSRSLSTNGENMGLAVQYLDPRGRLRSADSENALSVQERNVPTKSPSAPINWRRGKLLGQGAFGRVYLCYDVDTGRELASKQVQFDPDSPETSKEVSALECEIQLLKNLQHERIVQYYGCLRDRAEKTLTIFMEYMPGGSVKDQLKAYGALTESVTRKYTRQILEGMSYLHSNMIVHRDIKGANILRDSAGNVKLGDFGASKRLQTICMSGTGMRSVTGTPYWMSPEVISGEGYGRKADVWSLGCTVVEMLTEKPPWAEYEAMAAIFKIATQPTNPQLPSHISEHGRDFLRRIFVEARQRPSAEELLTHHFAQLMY", "experiment": "Selectivity interaction (Kinase panel (Invitrogen)) EUB0000639a MAP3K3", "conditions": "at 200 nM"}, "[5]": {"target": "Mitogen-activated protein kinase 1 (Homo sapiens, UniProt P28482)", "sequence (P28482 whole entry)": "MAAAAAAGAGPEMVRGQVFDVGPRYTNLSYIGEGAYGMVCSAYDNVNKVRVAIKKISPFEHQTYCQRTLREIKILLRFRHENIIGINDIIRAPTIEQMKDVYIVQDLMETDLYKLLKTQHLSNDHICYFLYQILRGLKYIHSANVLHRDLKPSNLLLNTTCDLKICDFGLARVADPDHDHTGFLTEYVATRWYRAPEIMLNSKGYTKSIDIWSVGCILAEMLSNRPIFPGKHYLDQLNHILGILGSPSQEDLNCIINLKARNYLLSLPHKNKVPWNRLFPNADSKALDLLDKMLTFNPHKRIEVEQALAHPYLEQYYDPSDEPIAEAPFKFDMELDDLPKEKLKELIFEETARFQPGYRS", "experiment": "Selectivity interaction (KinomeScan (DiscoverX)) EUB0000595a MAPK1", "conditions": "at 10 µM"}, "[6]": {"target": "Mitogen-activated protein kinase 7 (Homo sapiens) (UniProt Q13164)", "sequence (Q13164 2-816 limits assumed)": "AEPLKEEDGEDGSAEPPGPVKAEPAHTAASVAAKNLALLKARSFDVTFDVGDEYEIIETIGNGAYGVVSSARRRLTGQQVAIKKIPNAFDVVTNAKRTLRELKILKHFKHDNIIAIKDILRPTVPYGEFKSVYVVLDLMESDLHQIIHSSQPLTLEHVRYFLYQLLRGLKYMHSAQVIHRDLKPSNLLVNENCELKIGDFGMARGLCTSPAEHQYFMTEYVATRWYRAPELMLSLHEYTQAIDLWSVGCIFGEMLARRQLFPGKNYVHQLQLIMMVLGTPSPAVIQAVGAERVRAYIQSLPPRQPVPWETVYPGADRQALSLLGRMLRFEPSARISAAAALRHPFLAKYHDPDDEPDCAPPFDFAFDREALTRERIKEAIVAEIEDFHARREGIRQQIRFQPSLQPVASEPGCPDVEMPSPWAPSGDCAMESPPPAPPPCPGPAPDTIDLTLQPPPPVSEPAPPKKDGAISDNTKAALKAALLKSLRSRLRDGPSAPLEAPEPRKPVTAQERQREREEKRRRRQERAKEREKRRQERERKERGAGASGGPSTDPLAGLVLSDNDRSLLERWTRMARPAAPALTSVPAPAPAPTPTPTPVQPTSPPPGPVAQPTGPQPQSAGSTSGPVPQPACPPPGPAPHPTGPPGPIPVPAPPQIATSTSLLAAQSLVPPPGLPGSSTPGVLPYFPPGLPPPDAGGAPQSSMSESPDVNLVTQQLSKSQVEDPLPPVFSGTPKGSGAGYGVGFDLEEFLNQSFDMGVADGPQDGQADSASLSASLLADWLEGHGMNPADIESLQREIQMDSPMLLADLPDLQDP", "experiment": "Selectivity interaction (KinomeScan (DiscoverX)) EUB0000595a MAPK7", "conditions": "at 10 µM"}, "[7]": {"target": "T4, Serine/threonine-protein kinase LATS1 (Homo sapiens) (UniProt O95835)", "T4 sequence (whole entry)": "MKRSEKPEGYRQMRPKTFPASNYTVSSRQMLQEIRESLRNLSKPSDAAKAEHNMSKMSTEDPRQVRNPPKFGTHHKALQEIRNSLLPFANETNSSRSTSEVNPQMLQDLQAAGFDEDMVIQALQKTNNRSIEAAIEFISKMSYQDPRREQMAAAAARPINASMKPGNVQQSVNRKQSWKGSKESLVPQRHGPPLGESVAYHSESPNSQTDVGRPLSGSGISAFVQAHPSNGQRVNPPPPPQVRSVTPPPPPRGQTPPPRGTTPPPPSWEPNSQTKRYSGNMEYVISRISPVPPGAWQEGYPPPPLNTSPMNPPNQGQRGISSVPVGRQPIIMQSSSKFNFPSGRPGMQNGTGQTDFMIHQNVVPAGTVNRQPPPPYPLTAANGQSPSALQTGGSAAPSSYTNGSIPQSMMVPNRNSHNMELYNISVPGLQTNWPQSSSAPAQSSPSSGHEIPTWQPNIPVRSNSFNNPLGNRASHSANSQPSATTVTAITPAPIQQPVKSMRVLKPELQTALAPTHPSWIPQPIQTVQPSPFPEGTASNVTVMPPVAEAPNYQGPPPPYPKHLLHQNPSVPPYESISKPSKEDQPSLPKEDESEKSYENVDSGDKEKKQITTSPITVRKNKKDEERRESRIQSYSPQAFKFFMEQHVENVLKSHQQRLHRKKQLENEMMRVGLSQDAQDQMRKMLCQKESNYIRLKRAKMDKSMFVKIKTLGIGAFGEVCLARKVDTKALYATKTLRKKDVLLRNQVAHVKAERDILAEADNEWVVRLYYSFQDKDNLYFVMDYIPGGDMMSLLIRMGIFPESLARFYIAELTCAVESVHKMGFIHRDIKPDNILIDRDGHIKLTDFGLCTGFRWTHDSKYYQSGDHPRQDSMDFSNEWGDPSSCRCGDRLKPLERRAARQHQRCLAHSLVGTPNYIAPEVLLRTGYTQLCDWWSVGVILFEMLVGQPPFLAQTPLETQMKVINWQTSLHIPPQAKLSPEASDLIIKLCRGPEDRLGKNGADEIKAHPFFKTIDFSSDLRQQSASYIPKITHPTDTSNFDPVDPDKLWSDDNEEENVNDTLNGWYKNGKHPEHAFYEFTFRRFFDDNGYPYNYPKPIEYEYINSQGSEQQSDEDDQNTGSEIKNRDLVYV", "experiment": "Selectivity interaction (LanthaScreen Eu Kinase Binding Assay) EUB0001632a LATS1", "conditions": "at 10 µM"}}}
{"compound": "CC(=O)c1cc(-c2ccccc2OCC2CC2)c2ncccn12", "values": [{"measurement": "% of control", "setting": "[1]", "result": 108, "unit": "%"}]}
{"compound": "CC[C@@H](Nc1c(C#N)c(-c2ccc(-c3cccc(C)c3F)cc2)nc2cnccc12)C(=O)O", "note": "[BAY-091]", "values": [{"measurement": "% of inhibition", "setting": "[2]", "result": 142, "unit": "%"}]}
{"compound": "CC[C@@H]1[C@H](F)C(=O)N[C@@H]1COc1nccc2cc(C(N)=O)c(OC)cc12", "note": "[ZIMLOVISERTIB]", "values": [{"measurement": "% of inhibition", "setting": "[3]; at 0.01 µM", "result": 15.9, "unit": "%"}, {"measurement": "% of inhibition", "setting": "[3]; at 0.04 µM", "result": 3.7, "unit": "%"}, {"measurement": "% of inhibition", "setting": "[3]; at 0.2 µM", "result": 0.2, "unit": "%"}, {"measurement": "% of inhibition", "setting": "[3]; at 1 µM", "result": -8.2, "unit": "%"}, {"measurement": "% of inhibition", "setting": "[3]; at 5 µM", "result": 7, "unit": "%"}, {"measurement": "% of inhibition", "setting": "[4]", "result": -5.54, "unit": "%"}]}
{"compound": "COCC(=O)NC/C=C/c1ccc2ncnc(Nc3ccc(Oc4ccc(C)nc4)c(C)c3)c2c1", "note": "[CP-724714]", "values": [{"measurement": "% of control", "setting": "[5]", "result": 100, "unit": "%"}, {"measurement": "% of control", "setting": "[6]", "result": 100, "unit": "%"}]}
{"compound": "Cn1cc(-n2cnc3c(NCc4nc5cc(Cl)c(Cl)cc5[nH]4)nc(N4CCOCC4)nc32)cn1", "values": [{"measurement": "% of inhibition", "setting": "[7]", "result": -63.1, "unit": "%"}]}
